# Assays:
# [1] = molecular target: T1, human Nav1.8 (Homo sapiens, UniProt Q9Y5Y9); assay: Nav1.8 inhibitory activity, QPatch 48 HTX electrophysiology in HEK293-Nav1.8 cells; type: cell-based; parameters: expressed in transfected cells; host or cells: HEK293; settings: half inactivation state voltage protocol (V1/2), HEK293 cells expressing human Nav1.8, read-out: [Nav1.8] pIC50 (converted)
# Method: Biological Assay 1: Nav1.8 Inhibitory Activity Human embryonic kidney 293 cells (HEK293) expressing human Nav1.8, human Navol and human TREK1 (HEK293-Nav1.8) were grown in T150 cell culture flasks at 37° C., 5% CO2 incubator. HEK293-Nav1.8 were passaged every 2-3 days when confluency reached 80-90% in T150 cell culture flasks.
# Pharmacological assessment of compounds of the invention was performed using the QPatch 48 HTX electrophysiological platform. HEK293-Nav1.8 cells were prepared on the day of use by removing culture media, washing in DPBS, adding Accutase (2 mL to cover the surface, aspirate 1 mL then 1-2 minutes at 37° C.) followed by addition of CHO-SFM II to stop the enzyme digestion and in order to obtain a suspension of 3×10^6 cell/mL.
# Compounds of the invention were prepared in an extracellular solution of the following composition: NaCl (145 mM), KCl (4 mM), CaCl2) (2 mM), MgCl (2 mM), HEPES (1 mM), Glucose (10 mM), pH 7.4 with NaOH Osmolality 300 mOsM/L. An intracellular solution of the following composition was used: CsF (115 mM), CsCl (20 mm), NaCl (5 mM), EGTA (10 mM), HEPES (10 mM), Sucrose (20 mM), pH 7.2 with CsOH Osmolality 310 mOsm/L.
# Utilizing the voltage-clamp mode in the QPatch 48 HTX system a half inactivation state voltage protocol (V1/2) was used to determine pharmacological activity of compounds of the invention at Nav1.8 ion channels. A V1/2 protocol was utilized with the following voltage steps: a holding voltage of −100 mV was established followed by a 20 ms voltage step to 0 mV (P1), followed by an inactivating voltage step at −46 mV for 8 seconds, followed by a step to −100 mV for 20 ms, before a 20 ms step to 0 mV (P2), then returned to the holding voltage of −100 mV. This voltage protocol was repeated at a frequency of every 15 seconds, the current magnitude was quantified at the P2 step throughout the recording. Inhibition of the measured current amplitude with compounds of the invention was analyzed by fitting a 4-6 points dose-response curve allowing determination of the fifty percent inhibition concentration (IC50). P2 currents were normalized according to measurements made at baseline (Baseline, vehicle only), after compound (Input, at each test concentration), and after positive reference compound (FullResponse, to achieve complete block), fit to the following equation: […]
# To assess current run-down over the course of the experiment vehicle-only wells were utilized and the normalized current with vehicle-only (n. IVEH) was determined. To correct the compound response for run-down, the currents were corrected according to the following formula:
# [formula] • Compound inhibition was fitted to the following Hill Equation to estimate the half maximal inhibition concentration (IC50)
# [formula] • where Y is the normalized run-down corrected inhibition relative to the vehicle control (equivalent to n. IRD_Correct), C the test compound concentration, IC50 the concentration of test compound to inhibit the sodium current by 50%, and h the Hill coefficient.
# [2] = CAD kinetic solubility; type: physicochemical; settings: phosphate buffered saline (PBS), aqueous buffer, PBS pH 7.4, 1 hour equilibration at room temperature, from DMSO stock, HPLC-CAD
# Method: Kinetic solubility was measured using Charged Aerosol Detector (CAD). The aqueous kinetic solubility at pH 7.4 was determined by measuring the concentration of solute in solution after precipitation from DMSO stock solution. The DMSO stock solution was diluted 20-fold with phosphate buffered saline (PBS) pH 7.4 and the solubility of the compound was measured after 1 hour equilibration at room temperature by HPLC-CAD.
# [3] = molecular target: T1, human Nav1.8; assay: Manual patch-clamp electrophysiology assay, HEK293 cells overexpressing human Nav1.8; type: cell-based; parameters: host or cells: HEK293; settings: manual whole-cell patch-clamp, single-pulse resting protocol, holding voltage -120 mV, step to 0 mV, room temperature
# Excerpt: The pharmacological activity of the Compounds of Example 4A and Example 5A (active parent compound of prodrug Example 4 and Example 5, respectively) was investigated by a patch-clamp electrophysiological method using a cellular system in which human Nav1.8 was overexpressed in HEK293 cells. Using this approach Nav1.8 can be activated by modulating the plasma membrane voltage and then channel function (Na^+ conduction) can be directly quantified. The ability of Nav1.8 inhibitors to block channel function in this system is a measurement of target binding and inhibition.
# Cell preparation: HEK293 cells overexpressing human Nav1.8 (BIOCAT124824) were grown at 37° C., 5% C02 in medium (DMEM/F12 with 10% FBS, 2 mM GlutaMAX, 0.1 mM NEAA and […] G418, […] Hygromycin-B and […] Puromycin). […]
# Voltage-clamp recording protocol: Compound effects were tested using single-pulse resting protocol in which cells were depolarized to 0 mV for 50 ms from a holding voltage of −120 mV. The peak current amplitudes were measured from the activated currents at 0 mV. […]
# Nav1.8 current amplitudes measurement and normalization: Nav1.8 peak currents elicited by test pulse of 0 mV were measured and analysed by Clampfit 10.6 Software (Molecular Devices, USA). […]
# Compound inhibition analysis: The compound inhibition effect was calculated using the following equation: […]
# T1 sequence (Q9Y5Y9 whole entry): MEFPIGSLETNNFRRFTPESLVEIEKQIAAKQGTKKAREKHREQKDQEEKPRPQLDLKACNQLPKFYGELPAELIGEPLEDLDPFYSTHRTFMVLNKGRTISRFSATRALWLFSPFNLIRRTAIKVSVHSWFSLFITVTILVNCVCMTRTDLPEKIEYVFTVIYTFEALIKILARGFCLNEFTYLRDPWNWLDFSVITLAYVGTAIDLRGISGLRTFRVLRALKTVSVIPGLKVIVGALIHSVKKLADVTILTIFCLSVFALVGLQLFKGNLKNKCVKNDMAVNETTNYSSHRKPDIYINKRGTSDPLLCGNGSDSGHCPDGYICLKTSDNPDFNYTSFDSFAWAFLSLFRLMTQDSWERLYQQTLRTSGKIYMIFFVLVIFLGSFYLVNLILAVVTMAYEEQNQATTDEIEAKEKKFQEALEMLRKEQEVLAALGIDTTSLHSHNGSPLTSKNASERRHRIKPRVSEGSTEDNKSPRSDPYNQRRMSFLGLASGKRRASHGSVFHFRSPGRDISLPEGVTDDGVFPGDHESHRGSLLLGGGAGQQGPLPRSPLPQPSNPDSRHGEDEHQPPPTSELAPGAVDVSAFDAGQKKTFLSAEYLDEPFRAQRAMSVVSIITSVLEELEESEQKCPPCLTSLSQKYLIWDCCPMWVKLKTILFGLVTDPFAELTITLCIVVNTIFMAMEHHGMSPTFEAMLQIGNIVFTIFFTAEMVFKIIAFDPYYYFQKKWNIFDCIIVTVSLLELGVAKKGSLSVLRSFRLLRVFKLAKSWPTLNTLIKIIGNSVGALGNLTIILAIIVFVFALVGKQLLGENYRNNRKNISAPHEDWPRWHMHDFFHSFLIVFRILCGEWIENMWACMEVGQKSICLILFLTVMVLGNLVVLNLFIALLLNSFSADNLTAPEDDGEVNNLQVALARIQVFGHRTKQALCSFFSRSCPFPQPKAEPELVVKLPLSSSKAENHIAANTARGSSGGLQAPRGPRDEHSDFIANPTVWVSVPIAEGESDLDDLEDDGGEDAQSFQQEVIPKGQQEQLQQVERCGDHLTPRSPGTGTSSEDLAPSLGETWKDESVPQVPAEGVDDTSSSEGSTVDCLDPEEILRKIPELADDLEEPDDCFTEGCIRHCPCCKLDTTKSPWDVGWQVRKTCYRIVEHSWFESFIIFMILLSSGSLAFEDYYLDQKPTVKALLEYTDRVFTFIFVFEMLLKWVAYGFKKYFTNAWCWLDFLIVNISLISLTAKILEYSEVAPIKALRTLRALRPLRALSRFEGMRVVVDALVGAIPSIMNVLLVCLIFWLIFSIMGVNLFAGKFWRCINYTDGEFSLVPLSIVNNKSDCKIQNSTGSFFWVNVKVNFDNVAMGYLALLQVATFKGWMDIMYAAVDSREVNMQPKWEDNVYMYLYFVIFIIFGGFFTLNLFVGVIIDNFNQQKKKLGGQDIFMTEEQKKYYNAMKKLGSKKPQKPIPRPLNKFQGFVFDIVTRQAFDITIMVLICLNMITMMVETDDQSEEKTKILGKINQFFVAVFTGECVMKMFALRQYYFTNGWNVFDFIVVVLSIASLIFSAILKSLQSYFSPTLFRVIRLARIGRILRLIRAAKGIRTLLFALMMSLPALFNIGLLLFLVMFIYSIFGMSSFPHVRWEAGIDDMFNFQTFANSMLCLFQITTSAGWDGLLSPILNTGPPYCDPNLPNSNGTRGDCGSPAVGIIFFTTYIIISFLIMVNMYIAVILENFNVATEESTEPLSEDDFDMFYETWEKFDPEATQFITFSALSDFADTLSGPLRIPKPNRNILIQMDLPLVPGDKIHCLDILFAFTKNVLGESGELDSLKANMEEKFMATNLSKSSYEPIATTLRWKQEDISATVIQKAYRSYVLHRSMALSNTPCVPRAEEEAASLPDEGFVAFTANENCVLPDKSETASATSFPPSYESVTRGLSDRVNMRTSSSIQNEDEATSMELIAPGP
IC50 [1],solubility at 1 h [2],IC50 [3],Structure (SMILES)
5.01 nM,44 µg/mL,0.8 ± 0.2 nM,"Cc1[nH]c(=O)ccc1N1CN(c2ccc(F)c(F)c2C)c2cc(Cl)c(F)cc2C1=O [Example 4A, 7-chloro-1-(3,4-difluoro-2-methylphenyl)-6-fluoro-3-(2-methyl-6-oxo-1,6-dihydropyridin-3-yl)-2,3-dihydroquinazolin-4(1H)-one]"
5.01 nM,55 µg/mL,2.2 nM,"Cc1cc(F)ccc1N1CN(c2ccc(=O)[nH]c2C)C(=O)c2cc(F)c(Cl)cc21 [Example 5A, 7-chloro-6-fluoro-1-(4-fluoro-2-methylphenyl)-3-(2-methyl-6-oxo-1,6-dihydropyridin-3-yl)-2,3-dihydroquinazolin-4(1H)-one]"

# Reference: patent US20230416287A1, “Chemical Compounds” (GLAXOSMITHKLINE INTELLECTUAL PROPERTY DEVELOPMENT LIMITED, priority 2022, published 2023)
